In PubChem BioAssay AID330 (DTP/NCI, 2004):
Where “and” joins values, the source holds several entries; their conditions need not be identical. Equal values may be shown once. Toxic doses and inconclusive results are not listed.

Tested on: P388 leukemia ip, CD2F1 mice, survival T/C
Test: NCI In Vivo Anticancer Drug Screen. Data for tumor model P388 Leukemia (intraperitoneal) in CD2F1 (CDF1) mice
Conditions: endpoint: median survival time, higher = longer survival
In short: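 Mice carrying the transplanted tumor received test compound or vehicle. Survival was recorded in each group, and the value is the treated-group measurement divided by that of the vehicle-treated control group.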

[1] = dose: 60.0 mg/kg/injection, schedule: Q01DX005 (ip), vehicle: saline with Tween-80
[2] = dose: 120.0 mg/kg/injection, schedule: Q01DX005 (ip), vehicle: saline with Tween-80
[3] = dose: 240.0 mg/kg/injection, schedule: Q01DX005 (ip), vehicle: saline with Tween-80
[4] = dose: 50.0 mg/kg/injection, schedule: Q01DX005 (ip), vehicle: saline with Tween-80
[5] = dose: 100.0 mg/kg/injection, schedule: Q01DX005 (ip), vehicle: saline with Tween-80
[6] = dose: 200.0 mg/kg/injection, schedule: Q01DX005 (ip), vehicle: saline with Tween-80
[7] = dose: 12.5 mg/kg/injection, schedule: Q01DX009 (ip), vehicle: Klucel (hydroxypropylcellulose) (HPC)
[8] = dose: 25.0 mg/kg/injection, schedule: Q01DX009 (ip), vehicle: Klucel (hydroxypropylcellulose) (HPC)
[9] = dose: 50.0 mg/kg/injection, schedule: Q01DX009 (ip), vehicle: Klucel (hydroxypropylcellulose) (HPC)
[10] = dose: 25.0 mg/kg/injection, schedule: Q01DX005 (ip), vehicle: saline with Tween-80
[11] = dose: 100.0 mg/kg/injection, schedule: Q01DX009 (ip), vehicle: Klucel (hydroxypropylcellulose) (HPC)
[12] = dose: 50.0 mg/kg/injection, schedule: Q01DX005 (ip), vehicle: Klucel (hydroxypropylcellulose) (HPC)
[13] = dose: 100.0 mg/kg/injection, schedule: Q01DX005 (ip), vehicle: Klucel (hydroxypropylcellulose) (HPC)
[14] = dose: 200.0 mg/kg/injection, schedule: Q01DX005 (ip), vehicle: Klucel (hydroxypropylcellulose) (HPC)
[15] = dose: 100.0 mg/kg/injection, schedule: Q04DX003 (ip), vehicle: saline
[16] = dose: 200.0 mg/kg/injection, schedule: Q04DX003 (ip), vehicle: saline
[17] = dose: 400.0 mg/kg/injection, schedule: Q04DX003 (ip), vehicle: saline
[18] = dose: 6.25 mg/kg/injection, schedule: Q01DX005 (ip), vehicle: Klucel (hydroxypropylcellulose) (HPC)
[19] = dose: 12.5 mg/kg/injection, schedule: Q01DX005 (ip), vehicle: Klucel (hydroxypropylcellulose) (HPC)
[20] = dose: 400.0 mg/kg/injection, schedule: Q04DX003 (ip), vehicle: Klucel (hydroxypropylcellulose) (HPC)

In the case of `COc1cc2c(cc1OC)-c1ccc(OC)c(=O)cc1CC(NC(=O)C(C)=O)C2` (stereo not given), the T/C (dose: 0.63 mg/kg/injection, schedule: Q01DX009 (ip), vehicle: Klucel (hydroxypropylcellulose) (HPC)) is reported as 153 % of control, the T/C (dose: 1.25 mg/kg/injection, schedule: Q01DX009 (ip), vehicle: Klucel (hydroxypropylcellulose) (HPC)) is reported as 105 % of control and the T/C (dose: 78.0 micrograms/kg/injection, schedule: Q01DX009 (ip), vehicle: Klucel (hydroxypropylcellulose) (HPC)) is reported as 120 % of control. The T/C (dose: 625.0 micrograms/kg/injection, schedule: Q01DX009 (ip), vehicle: Klucel (hydroxypropylcellulose) (HPC)) was 151 % of control.
For `N[C@@H](Cc1ccccc1)C(=O)NCCNC(=O)[C@@H](N)Cc1ccccc1`, the T/C [1] was 103 % of control, the T/C [2] was 100 % of control and the T/C [3] was 104 % of control.
For `O=[N+]([O-])c1ccc2c(N3CCC(CCCC4CCN(c5ncnc6cc([N+](=O)[O-])ccc56)CC4)CC3)ncnc2c1`, the T/C [4] was 89 % of control, the T/C [5] was 96 % of control and the T/C [6] was 100 % of control.
For `CCN(CC)Sc1cccc([N+](=O)[O-])c1`, the T/C [7] was 108 % of control, the T/C [8] was 118 % of control and the T/C [9] was 113 % of control and 119 % of control.
`Cc1ccc(O)c2c(NCCCCCCNc3cc(C)[n+](C)c4c(C)ccc(O)c34)cc(C)[n+](C)c12` was tested, and the T/C (dose: 12.5 mg/kg/injection, schedule: Q01DX005 (ip), vehicle: saline with Tween-80) was 99 % of control, the T/C [10] was 112 % of control and the T/C [4] was 92 % of control.
In the case of `CC(CNC(=O)CCOS(C)(=O)=O)CNC(=O)CCOS(C)(=O)=O`, the T/C (dose: 6.25 mg/kg/injection, schedule: Q01DX009 (ip), vehicle: saline) is reported as 105 % of control, the T/C (dose: 12.5 mg/kg/injection, schedule: Q01DX009 (ip), vehicle: saline) is reported as 106 % of control and the T/C (dose: 25.0 mg/kg/injection, schedule: Q01DX009 (ip), vehicle: saline) is reported as 100 % of control. For the same molecule, the T/C (dose: 50.0 mg/kg/injection, schedule: Q01DX009 (ip), vehicle: saline) was 102 % of control.
In the case of `Cc1c2c(c(O)c3sccc13)C(C)(C)OC2=O`, the T/C [4] is reported as 101 % of control, the T/C [5] is reported as 99 % of control and the T/C [6] is reported as 97 % of control.
In the case of `CC1CCCC(C)N1NC1=NCCO1` (stereo not given), the T/C (dose: 25.0 mg/kg/injection, schedule: Q04DX003 (ip), vehicle: saline with Tween-80) is reported as 104 % of control and the T/C (dose: 50.0 mg/kg/injection, schedule: Q04DX003 (ip), vehicle: saline with Tween-80) is reported as 95 % of control.
In the case of `COc1cccc(C(OC(=O)c2ccccc2)c2nncc3ccccc23)c1OC` (stereo not given), the T/C [9] is reported as 100 % of control, the T/C [11] is reported as 103 % of control and the T/C (dose: 200.0 mg/kg/injection, schedule: Q01DX009 (ip), vehicle: Klucel (hydroxypropylcellulose) (HPC)) is reported as 100 % of control.
In the case of `CCOC(=O)NCCCCCCNC(=O)OCC`, the T/C [12] is reported as 99 % of control and 90 % of control, the T/C [13] is reported as 90 % of control and 95 % of control and the T/C [14] is reported as 93 % of control and 98 % of control.
In the case of `C[n+]1ccccc1/C=C/c1cccc([N+](=O)[O-])c1`, the T/C (dose: 5.0 mg/kg/injection, schedule: Q01DX009 (ip), vehicle: saline with Tween-80) is reported as 100 % of control, the T/C (dose: 10.0 mg/kg/injection, schedule: Q01DX009 (ip), vehicle: saline with Tween-80) is reported as 109 % of control and the T/C (dose: 20.0 mg/kg/injection, schedule: Q01DX009 (ip), vehicle: saline with Tween-80) is reported as 100 % of control.
With `C=C1C[C@@]23CC[C@@H]4[C@](C)(CC[C@H](O)[C@]4(C)COC(=O)CCC(=O)O)[C@H]2CC[C@@H]1C3` the T/C [12] was 101 % of control, the T/C [13] was 100 % of control and the T/C [14] was 99 % of control.
For `CC(C)(C)c1ccc(N)c(N)c1`, the T/C (dose: 50.0 mg/kg/injection, schedule: Q01DX009 (ip), vehicle: DMSO) was 98 % of control and the T/C (dose: 100.0 mg/kg/injection, schedule: Q01DX009 (ip), vehicle: DMSO) was 99 % of control.
For `N#CC1C(=O)NC(=S)NC1c1ccc(Cl)cc1` (stereo not given), the T/C [9] was 94 % of control and the T/C [11] was 101 % of control.
`OCC(COCCCCCCCCCCCCCC1C=CCC1)OCCCCCCCCCCCCCC1C=CCC1` (stereo not given) was tested, and the T/C [15] was 96 % of control, the T/C [16] was 89 % of control and the T/C [17] was 93 % of control.
For `CC(C)(C)NCC(CN1CCOCC1)C(=O)c1ccccc1` (stereo not given), the T/C [18] was 99 % of control and the T/C [19] was 96 % of control.
With `CN(C)C(=S)S/C=C\C(=O)O` the T/C (dose: 6.25 mg/kg/injection, schedule: Q04DX003 (ip), vehicle: Klucel (hydroxypropylcellulose) (HPC)) was 97 % of control, the T/C (dose: 12.5 mg/kg/injection, schedule: Q04DX003 (ip), vehicle: Klucel (hydroxypropylcellulose) (HPC)) was 97 % of control and the T/C (dose: 25.0 mg/kg/injection, schedule: Q04DX003 (ip), vehicle: Klucel (hydroxypropylcellulose) (HPC)) was 100 % of control. The T/C [20] was 88 % of control.
In the case of `CCCCCCCCCCCCCCCCCc1cccc(O)c1`, the T/C [7] is reported as 114 % of control, the T/C [8] is reported as 103 % of control and the T/C [9] is reported as 114 % of control.
With `CC1=NN(c2cccc(C(F)(F)F)c2)C(=O)C1` the T/C [8] was 100 % of control, the T/C [9] was 106 % of control and the T/C [11] was 102 % of control.
In the case of `CCOC(=O)CC(C)=NCCN=C(C)CC(=O)OCC`, the T/C (dose: 50.0 mg/kg/injection, schedule: Q01DX009 (ip), vehicle: saline with Tween-80) is reported as 104 % of control, the T/C (dose: 100.0 mg/kg/injection, schedule: Q01DX009 (ip), vehicle: saline with Tween-80) is reported as 106 % of control and the T/C (dose: 200.0 mg/kg/injection, schedule: Q01DX009 (ip), vehicle: saline with Tween-80) is reported as 111 % of control.
For `OCC1CCCCC1(O)c1ccccc1` (stereo not given), the T/C (dose: 50.0 mg/kg/injection, schedule: Q01DX001 (ip), vehicle: Klucel (hydroxypropylcellulose) (HPC)) was 90 % of control, the T/C (dose: 100.0 mg/kg/injection, schedule: Q01DX001 (ip), vehicle: Klucel (hydroxypropylcellulose) (HPC)) was 90 % of control and the T/C (dose: 200.0 mg/kg/injection, schedule: Q01DX001 (ip), vehicle: Klucel (hydroxypropylcellulose) (HPC)) was 90 % of control.
`CN(C)C1=CC(=O)NC2CCCCC12` (stereo not given) was tested, and the T/C [12] was 95 % of control, the T/C [13] was 98 % of control and the T/C [14] was 105 % of control.
For `Cc1ccc(C)c(C(=O)/C=C/C(=O)O)c1`, the T/C [10] was 114 % of control and the T/C [4] was 115 % of control and 117 % of control.
With `CC(C)N(C)N=Nc1ccc(C(N)=O)cc1` the T/C [9] was 114 % of control and 120 % of control and the T/C [11] was 113 % of control.
`Cc1cc[n+](C2C(=O)c3ccccc3C(=O)C2Nc2cc(Cl)ccc2Cl)cc1` (stereo not given) was tested, and the T/C [1] was 106 % of control, the T/C [2] was 108 % of control and the T/C [3] was 105 % of control.
For `CCCCOC(=O)C1(N)CCCC1`, the T/C [15] was 100 % of control and the T/C [16] was 109 % of control.
`CN1CC1c1cc2ccccc2c2ccccc12` (stereo not given) was tested, and the T/C (dose: 100.0 mg/kg/injection, schedule: Q01DX001 (ip), vehicle: suspension in saline) was 107 % of control, the T/C (dose: 200.0 mg/kg/injection, schedule: Q01DX001 (ip), vehicle: suspension in saline) was 98 % of control and the T/C (dose: 400.0 mg/kg/injection, schedule: Q01DX001 (ip), vehicle: suspension in saline) was 101 % of control.
`COC1(OC)C(=S)N(C2CCCCC2)C(=S)N1C1CCCCC1` was tested, and the T/C [12] was 95 % of control, the T/C [13] was 95 % of control and the T/C [14] was 96 % of control.
In the case of `COc1ccc(C2=C(Cl)C(=O)N(c3ccccc3OC)C(=O)C2(Cl)Cl)cc1`, the T/C (dose: 100.0 mg/kg/injection, schedule: Q04DX003 (ip), vehicle: Klucel (hydroxypropylcellulose) (HPC)) is reported as 107 % of control, the T/C (dose: 200.0 mg/kg/injection, schedule: Q04DX003 (ip), vehicle: Klucel (hydroxypropylcellulose) (HPC)) is reported as 103 % of control and the T/C [20] is reported as 98 % of control.
For `COC(=S)SSC(=S)NCC(C)NC(=S)SSC(=S)OC` (stereo not given), the T/C [12] was 103 % of control, the T/C [13] was 103 % of control and the T/C [14] was 105 % of control.
For `COC(=O)c1nc(N)nc(C(=O)OC)c1C(=O)c1ccc(N2CCN(c3ccc(C(=O)c4c(C(=O)OC)nc(N)nc4C(=O)OC)cc3)CC2)cc1`, the T/C [1] was 98 % of control, the T/C [2] was 97 % of control and the T/C [3] was 91 % of control.
In the case of `Nc1nsc2nc3ccccc3cc12`, the T/C [18] is reported as 102 % of control, the T/C [19] is reported as 100 % of control and the T/C (dose: 25.0 mg/kg/injection, schedule: Q01DX005 (ip), vehicle: Klucel (hydroxypropylcellulose) (HPC)) is reported as 99 % of control. The T/C [13] was 112 % of control and the T/C [14] was 102 % of control.
`c1ncc2[nH]cnc2n1` was tested, and the T/C (dose: 100.0 mg/kg/injection, schedule: Q01DX009 (ip), vehicle: saline sonified) was 100 % of control, the T/C [15] was 104 % of control and the T/C (dose: 200.0 mg/kg/injection, schedule: Q01DX009 (ip), vehicle: saline sonified) was 104 % of control. For the same molecule, the T/C [16] was 104 % of control, the T/C (dose: 400.0 mg/kg/injection, schedule: Q01DX009 (ip), vehicle: saline sonified) was 100 % of control and the T/C [17] was 104 % of control.
